Experiments:
[1] = test system: human peripheral blood lymphocytes (PBMCs); assay: hPBMC assay: IFN-γ and IFN-α production by human PBMCs (ELISA); assay type: cell-based
[2] = test system: plasmacytoind dendritic cells (PDCs) of human PBMCs; assay: Intracellular staining and FACS analysis of IFN-α production from PDCs; assay type: cell-based; conditions: double-staining cells as percentage of total PBMCs, 20 μg/mL oligonucleotide, 100 μg/mL PMXB, six hours
Experimental: Intracellular staining assays and FACS analysis were used to examine IFN-α production from the plasmacytoind dendritic cells (PDCs) of human PBMCs. […] For these assays, the IMC or -ISS and the polymyxin were added separately to the PBMC cell culture which contained human serum albumin. […] After the six hours, the cells were stained with a fluorescently labeled PDC marker, anti-BCDA-2 labeled with FITC, and with anti-IFN-α labeled with PE. FACS analysis of the labeled cells was performed.

K562 cells = assay: NK cell lytic activity of stimulated PBMCs against 51Cr-loaded K562 cells; assay type: cell-based, human; conditions: 10 μg/mL IMC, 100 μg/mL PMXB, 48 hours
Experimental: IMC particulate formulations were tested for NK cell stimulatory activity. PBMCs from two donors were stimulated for 48 hours with 10 μg/mL IMC (“+ISS”) 5′-[…]-3′ (SEQ ID NO:1) with or without 100 μg/mL PMXB. The PBMCs were then assayed for lytic activity against K562 cells loaded with ^51Cr as target cells. For controls, K562 cells were cultured alone, K562 cells were lysed with Triton and K562 cells were stimulated with untreated PBMC cells. Determination of ^51CR released into culture media was used to measure the extent of target cell lysis. The presence of PMXB increased the NK cell lytic activity stimulated by the IMC alone.

mouse lung cells = assay: Gene modulation in mouse lung after intranasal instillation (TAQMAN, relative cycle thresholds; Table 18); assay type: in vivo; design: Relative Cycle Thresholds (CTs), IFN-α2 / Relative Cycle Thresholds (CTs), BCA-1 / Relative Cycle Thresholds (CTs), IP-10 / Relative Cycle Thresholds (CTs), MIP-1b / Relative Cycle Thresholds (CTs), 12/15-lipoxg: reference not given here; conditions: 6 hours after intranasal instillation
Experimental: Modulation of a variety of genes in response to immunomodulatory formulations was measured in mouse lung cells.
Particulate formulations were produced by first preparing either a 1 mg/mL +ISS, 0.4% TWEEN® 85, 0.4% oleate solution or a 20 mg/mL HSA solution, then making that solution 5 mg/ml in PMXB. The formulations were allowed to stand for 24 hours at room temperature, then dialyzed using a 10 kDa membrane. Particulate formulations and +ISS alone (50 μL dose) were administered by intranasal instillation to lightly anesthetized mice (5 mice per group). Animals were sacrificed 6 hours after administration, lung tissue was surgically removed, and cell suspensions were made by homogenization of the lung tissue. cDNA was synthesized from RNA isolated from the cell suspensions, and RNA was quantitated using TAQMAN® Technology. The particulate formulations induced significant increases in the majority of the genes tested.

[3] = Donor 198, no Time given, 20 μg/ml oligonucleotide
[4] = Donor 199, no Time given, 20 μg/ml oligonucleotide
[5] = Donor 28212, Controls, 20 μg/ml oligonucleotide, 100 μg/ml polymyxin
[6] = Donor 28213, Controls, 20 μg/ml oligonucleotide, 100 μg/ml polymyxin
[7] = Donor 28232, no Time given, 20 μg/ml oligonucleotide, 100 μg/ml polymyxin
[8] = Donor 28233, no Time given, 20 μg/ml oligonucleotide, 100 μg/ml polymyxin
[9] = Donor # 9, 20 μg/ml oligonucleotide, 100 μg/ml PMXB, 24 hours
[10] = Donor # 37, 20 μg/ml oligonucleotide, 100 μg/ml PMXB, 24 hours
[11] = Donor # 86, 20 μg/ml oligonucleotide, 100 μg/ml PMXB, 24 hours
[12] = Donor # 87, 20 μg/ml oligonucleotide, 100 μg/ml PMXB, 24 hours
[13] = Donor # 88, 20 μg/ml oligonucleotide, 100 μg/ml PMXB, 24 hours
[14] = Donor # 89, 20 μg/ml oligonucleotide, 100 μg/ml PMXB, 24 hours
[15] = Donor # 90, 20 μg/ml oligonucleotide, 100 μg/ml PMXB, 24 hours
[16] = Donor # 91, 20 μg/ml oligonucleotide, 100 μg/ml PMXB, 24 hours
[17] = Donor # 94, 20 μg/ml oligonucleotide, 100 μg/ml PMXB, 24 hours
[18] = Donor # 95, 20 μg/ml oligonucleotide, 100 μg/ml PMXB, 24 hours
[19] = Mean (Table 4), Controls, 20 μg/ml oligonucleotide, 100 μg/ml polymyxin
[20] = Mean (Table 5), no Time given, 20 μg/ml oligonucleotide
[21] = Mean (Table 6), no Time given, 20 μg/ml oligonucleotide, 100 μg/ml polymyxin
[22] = Mean of donors (Table 2), 20 μg/ml oligonucleotide, 100 μg/ml PMXB, 24 hours
[23] = Table 3, Donor 1, PMXB 100 μg/ml, AMTB 10 μg/ml, serum containing medium
[24] = Table 3, Donor 2, PMXB 100 μg/ml, AMTB 10 μg/ml, serum containing medium
[25] = Table 3, Mean, PMXB 100 μg/ml, AMTB 10 μg/ml, serum containing medium
[26] = Table 9, Mean, 20 μg/ml oligonucleotide, 100 μg/ml polymyxin
[27] = Table 9, donor 149, 20 μg/ml oligonucleotide, 100 μg/ml polymyxin
[28] = Table 9, donor 208, 20 μg/ml oligonucleotide, 100 μg/ml polymyxin
[29] = Table 10, donor 1, 20 μg/ml oligonucleotide, 100 μg/ml polymyxin derivative added separately, 24 hours
[30] = Table 10, donor 2, 20 μg/ml oligonucleotide, 100 μg/ml polymyxin derivative added separately, 24 hours
[31] = Table 10, donor 3, 20 μg/ml oligonucleotide, 100 μg/ml polymyxin derivative added separately, 24 hours
[32] = Table 10, donor 4, 20 μg/ml oligonucleotide, 100 μg/ml polymyxin derivative added separately, 24 hours
[33] = Table 10, donor 5, 20 μg/ml oligonucleotide, 100 μg/ml polymyxin derivative added separately, 24 hours
[34] = Table 10, donor 6, 20 μg/ml oligonucleotide, 100 μg/ml polymyxin derivative added separately, 24 hours
[35] = Table 10, mean of 6 donors, 20 μg/ml oligonucleotide, 100 μg/ml polymyxin derivative added separately, 24 hours
[36] = Effector:Target ratio 12.5:1, donor 2

5′-TGACTGTGAACGTTCGAGATGA-3′ [+ISS]
IFN-α [1, 3]: 224 pg/mL | IFN-γ [1, 3]: 10 pg/mL | IFN-α [1, 4]: 277 pg/mL | IFN-γ [1, 4]: 167 pg/mL | IFN-α [1, 5]: 135 pg/mL | IFN-γ [1, 5]: 5 pg/mL | IFN-α [1, 6]: 109 pg/mL | IFN-γ [1, 6]: 17 pg/mL | IFN-Υ [1, 7]: 276 pg/mL | IFN-α [1, 7]: 9 pg/mL | IFN-Υ [1, 8]: 20 pg/mL | IFN-α [1, 8]: 103 pg/mL | IFN-α [1, 9]: 131 pg/mL | IFN-γ [1, 9]: 20 pg/mL | IFN-γ ([1]; Donor # 20, 20 μg/ml oligonucleotide, 100 μg/ml PMXB, 24 hours): 291 pg/mL | IFN-α [1, 10]: 70 pg/mL | IFN-γ [1, 10]: 15 pg/mL | IFN-γ ([1]; Donor # 75, 20 μg/ml oligonucleotide, 100 μg/ml PMXB, 24 hours): 22 pg/mL | IFN-α [1, 11]: 358 pg/mL | IFN-γ [1, 11]: 182 pg/mL | IFN-α [1, 12]: 212 pg/mL | IFN-γ [1, 12]: 341 pg/mL | IFN-α [1, 13]: 264 pg/mL | IFN-γ [1, 13]: 367 pg/mL | IFN-α [1, 14]: 207 pg/mL | IFN-γ [1, 14]: 100 pg/mL | IFN-α [1, 15]: 119 pg/mL | IFN-γ [1, 15]: 13 pg/mL | IFN-α [1, 16]: 0 pg/mL | IFN-γ [1, 16]: 27 pg/mL | IFN-α [1, 17]: 274 pg/mL | IFN-γ [1, 17]: 30 pg/mL | IFN-α [1, 18]: 26 pg/mL | IFN-γ [1, 18]: 6 pg/mL | IFN-γ ([1]; Donor # 96, 20 μg/ml oligonucleotide, 100 μg/ml PMXB, 24 hours): 49 pg/mL | IFN-γ ([1]; Donor # 97, 20 μg/ml oligonucleotide, 100 μg/ml PMXB, 24 hours): 23 pg/mL | IFN-α [1, 19]: 122 pg/mL | IFN-γ [1, 19]: 11 pg/mL | IFN-α [1, 20]: 250 pg/mL | IFN-γ [1, 20]: 88 pg/mL | IFN-Υ [1, 21]: 148 pg/mL | IFN-α [1, 21]: 56 pg/mL | IFN-α [1, 22]: 166 pg/mL | IFN-γ [1, 22]: 106 pg/mL | IFN-α [1, 23]: 11 pg/mL | IFN-γ [1, 23]: 29 pg/mL | IFN-α [1, 24]: 2 pg/mL | IFN-γ [1, 24]: 0 pg/mL | IFN-α [1, 25]: 6 pg/mL | IFN-γ [1, 25]: 15 pg/mL | IFN-Υ [1, 26]: 76 pg/mL | IFN-α [1, 26]: 41 pg/mL | IFN-Υ [1, 27]: 78 pg/mL | IFN-α [1, 27]: 59 pg/mL | IFN-Υ ([1]; Table 9, donor 206, 20 μg/ml oligonucleotide, 100 μg/ml polymyxin): 5 pg/mL | IFN-Υ [1, 28]: 146 pg/mL | IFN-α [1, 28]: 32 pg/mL | IFN-α ([1]; Table 9, donor 209, 20 μg/ml oligonucleotide, 100 μg/ml polymyxin): 32 pg/mL | IFN-α [1, 29]: 263 pg/mL | IFN-γ [1, 29]: 13 pg/mL | IFN-α [1, 30]: 225 pg/mL | IFN-γ [1, 30]: 3 pg/mL | IFN-α [1, 31]: 52 pg/mL | IFN-γ [1, 31]: 2 pg/mL | IFN-α [1, 32]: 52 pg/mL | IFN-γ [1, 32]: 2 pg/mL | IFN-α [1, 33]: 218 pg/mL | IFN-γ [1, 33]: 99 pg/mL | IFN-α [1, 34]: 26 pg/mL | IFN-γ [1, 34]: 14 pg/mL | IFN-α [1, 35]: 139 pg/mL | IFN-γ [1, 35]: 22 pg/mL | BCDA-2/IFN-α d.p. % ([2]; donor 1): 0.01% | BCDA-2/IFN-α d.p. % ([2]; donor 2): 0.03% | BCDA-2/IFN-α d.p. % ([2]; mean): 0.02% | 51Cr released from K562 target cells, cpm1 (K562 cells; Effector:Target ratio 6:1, donor 1): 6935 cpm | 51Cr released from K562 target cells, cpm2 (K562 cells; [36]): 8370 cpm | 51Cr released from K562 target cells, mean (K562 cells; [36]): 8162 cpm | 51Cr released from K562 target cells, cpm3 (K562 cells; Effector:Target ratio 25:1, donor 1): 8048 cpm | Relative Cycle Thresholds (CTs), 12/15-lipoxg (mouse lung cells; gene 12/15-lipoxg): 65 | Relative Cycle Thresholds (CTs), BCA-1 (mouse lung cells; gene BCA-1): 5026 | Relative Cycle Thresholds (CTs), CD80 (mouse lung cells; gene CD80): 205 | Relative Cycle Thresholds (CTs), CD86 (mouse lung cells; gene CD86): 103 | Relative Cycle Thresholds (CTs), COX-1 (mouse lung cells; gene COX-1): 2145 | Relative Cycle Thresholds (CTs), COX-2 (mouse lung cells; gene COX-2): 446 | Relative Cycle Thresholds (CTs), Eotaxin (mouse lung cells; gene Eotaxin): 273 | Relative Cycle Thresholds (CTs), G-CSF (mouse lung cells; gene G-CSF): 92 | Relative Cycle Thresholds (CTs), IFN-α2 (mouse lung cells; gene IFN-α2): 3 | Relative Cycle Thresholds (CTs), IFN-γ (mouse lung cells; gene IFN-γ): 25 | Relative Cycle Thresholds (CTs), IL-1a (mouse lung cells; gene IL-1a): 7523 | Relative Cycle Thresholds (CTs), IL-1b (mouse lung cells; gene IL-1b): 1643 | Relative Cycle Thresholds (CTs), IL-6 (mouse lung cells; gene IL-6): 755 | Relative Cycle Thresholds (CTs), IL-10 (mouse lung cells; gene IL-10): 4 | Relative Cycle Thresholds (CTs), IL-12p40 (mouse lung cells; gene IL-12p40): 6 | Relative Cycle Thresholds (CTs), IL-23 (mouse lung cells; gene IL-23): 266 | Relative Cycle Thresholds (CTs), IP-10 (mouse lung cells; gene IP-10): 23436 | Relative Cycle Thresholds (CTs), LPTN (mouse lung cells; gene LPTN): 976 | Relative Cycle Thresholds (CTs), MCP-1 (mouse lung cells; gene MCP-1): 5265 | Relative Cycle Thresholds (CTs), MCP-3 (mouse lung cells; gene MCP-3): 3905 | Relative Cycle Thresholds (CTs), MDC (mouse lung cells; gene MDC): 2869 | Relative Cycle Thresholds (CTs), MIG (mouse lung cells; gene MIG): 3411 | Relative Cycle Thresholds (CTs), MIP-1a (mouse lung cells; gene MIP-1a): 6156 | Relative Cycle Thresholds (CTs), MIP-1b (mouse lung cells; gene MIP-1b): 12918 | Relative Cycle Thresholds (CTs), MIP-2 (mouse lung cells; gene MIP-2): 1792 | Relative Cycle Thresholds (CTs), MIP-3a (mouse lung cells; gene MIP-3a): 885 | Relative Cycle Thresholds (CTs), MIP-3b (mouse lung cells; gene MIP-3b): 2030 | Relative Cycle Thresholds (CTs), MMP-8 (mouse lung cells; gene MMP-8): 1505 | Relative Cycle Thresholds (CTs), NOS2 (mouse lung cells; gene NOS2): 308 | Relative Cycle Thresholds (CTs), TARC (mouse lung cells; gene TARC): 1505 | Relative Cycle Thresholds (CTs), TCA-3 (mouse lung cells; gene TCA-3): 16 | Relative Cycle Thresholds (CTs), TNF-α (mouse lung cells; gene TNF-α): 7170
